{"source": "paper PMC2115601", "about": "(The Journal of Cell Biology, 1989)", "key": {"endothelial cells [1]": {"biological_target": "T1, endothelial cells (UniProt P05106+P06756)", "T1 sequence (P06756 31-1048)": "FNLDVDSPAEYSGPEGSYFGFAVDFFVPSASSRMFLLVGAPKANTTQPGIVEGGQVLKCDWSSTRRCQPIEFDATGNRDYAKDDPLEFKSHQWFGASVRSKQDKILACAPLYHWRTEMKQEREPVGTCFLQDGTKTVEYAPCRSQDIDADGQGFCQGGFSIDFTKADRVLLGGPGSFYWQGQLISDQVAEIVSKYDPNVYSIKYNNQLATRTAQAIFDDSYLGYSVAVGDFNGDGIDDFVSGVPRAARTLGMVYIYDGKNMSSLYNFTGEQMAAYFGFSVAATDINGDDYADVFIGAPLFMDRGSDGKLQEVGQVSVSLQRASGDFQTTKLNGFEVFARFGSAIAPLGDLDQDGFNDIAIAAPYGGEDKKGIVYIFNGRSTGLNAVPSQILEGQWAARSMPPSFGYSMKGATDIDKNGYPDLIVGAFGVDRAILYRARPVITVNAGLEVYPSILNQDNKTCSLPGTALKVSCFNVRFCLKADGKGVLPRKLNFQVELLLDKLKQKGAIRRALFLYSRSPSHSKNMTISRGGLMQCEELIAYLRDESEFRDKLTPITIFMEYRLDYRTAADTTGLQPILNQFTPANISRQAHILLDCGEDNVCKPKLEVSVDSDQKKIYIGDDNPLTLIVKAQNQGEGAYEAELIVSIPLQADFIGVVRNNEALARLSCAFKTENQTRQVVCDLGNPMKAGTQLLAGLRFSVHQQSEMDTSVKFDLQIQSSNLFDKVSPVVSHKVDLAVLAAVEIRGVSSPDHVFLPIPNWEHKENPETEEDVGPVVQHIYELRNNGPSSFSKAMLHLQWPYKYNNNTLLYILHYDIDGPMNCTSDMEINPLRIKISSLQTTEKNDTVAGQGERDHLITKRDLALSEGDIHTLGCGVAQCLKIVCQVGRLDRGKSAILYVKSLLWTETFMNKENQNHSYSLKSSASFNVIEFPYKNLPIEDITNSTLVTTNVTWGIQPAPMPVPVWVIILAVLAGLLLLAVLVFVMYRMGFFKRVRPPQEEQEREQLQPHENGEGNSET", "T1 sequence (P05106 27-788)": "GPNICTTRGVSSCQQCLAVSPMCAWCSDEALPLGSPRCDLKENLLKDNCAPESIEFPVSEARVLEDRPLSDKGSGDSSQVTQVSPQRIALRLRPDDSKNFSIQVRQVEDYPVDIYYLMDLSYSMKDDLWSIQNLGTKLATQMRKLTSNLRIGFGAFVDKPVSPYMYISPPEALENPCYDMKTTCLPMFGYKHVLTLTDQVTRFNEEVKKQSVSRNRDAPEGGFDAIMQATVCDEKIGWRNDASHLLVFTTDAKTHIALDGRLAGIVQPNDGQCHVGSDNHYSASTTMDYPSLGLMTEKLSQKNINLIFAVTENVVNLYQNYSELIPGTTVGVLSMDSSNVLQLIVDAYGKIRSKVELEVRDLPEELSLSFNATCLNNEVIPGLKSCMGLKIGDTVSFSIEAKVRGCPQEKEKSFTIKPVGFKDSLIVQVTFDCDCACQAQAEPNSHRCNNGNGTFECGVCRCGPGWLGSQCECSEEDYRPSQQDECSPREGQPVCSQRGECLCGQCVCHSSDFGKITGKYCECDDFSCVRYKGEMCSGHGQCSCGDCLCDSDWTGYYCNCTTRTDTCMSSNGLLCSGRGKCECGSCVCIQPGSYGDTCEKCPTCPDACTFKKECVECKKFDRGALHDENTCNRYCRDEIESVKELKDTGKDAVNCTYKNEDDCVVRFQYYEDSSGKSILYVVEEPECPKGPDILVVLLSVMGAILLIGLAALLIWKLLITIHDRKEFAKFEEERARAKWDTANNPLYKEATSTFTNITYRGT", "T1 sequence (P02671 36-866 partner)": "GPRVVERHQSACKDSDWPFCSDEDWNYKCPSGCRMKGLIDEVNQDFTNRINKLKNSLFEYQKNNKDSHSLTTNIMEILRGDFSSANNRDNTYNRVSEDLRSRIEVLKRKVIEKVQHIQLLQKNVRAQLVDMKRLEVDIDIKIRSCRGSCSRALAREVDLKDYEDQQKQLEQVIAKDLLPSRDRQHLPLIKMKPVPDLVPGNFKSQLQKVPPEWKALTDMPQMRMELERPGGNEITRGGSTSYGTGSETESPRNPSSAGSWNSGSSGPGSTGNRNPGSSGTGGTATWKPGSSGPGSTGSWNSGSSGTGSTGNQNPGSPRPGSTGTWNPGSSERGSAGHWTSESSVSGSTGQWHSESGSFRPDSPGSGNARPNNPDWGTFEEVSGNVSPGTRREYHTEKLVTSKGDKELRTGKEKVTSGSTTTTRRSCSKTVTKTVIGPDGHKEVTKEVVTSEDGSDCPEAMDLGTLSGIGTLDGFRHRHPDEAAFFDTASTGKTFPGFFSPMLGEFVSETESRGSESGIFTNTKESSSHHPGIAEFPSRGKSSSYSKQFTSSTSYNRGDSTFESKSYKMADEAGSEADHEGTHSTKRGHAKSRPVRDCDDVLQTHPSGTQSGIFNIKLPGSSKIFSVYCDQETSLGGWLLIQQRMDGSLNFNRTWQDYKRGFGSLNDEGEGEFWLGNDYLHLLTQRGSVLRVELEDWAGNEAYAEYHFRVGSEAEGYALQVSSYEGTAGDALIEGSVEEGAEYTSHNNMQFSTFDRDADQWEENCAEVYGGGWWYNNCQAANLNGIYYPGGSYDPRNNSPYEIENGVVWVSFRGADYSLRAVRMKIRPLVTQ", "T1 sequence (P02675 45-491 partner)": "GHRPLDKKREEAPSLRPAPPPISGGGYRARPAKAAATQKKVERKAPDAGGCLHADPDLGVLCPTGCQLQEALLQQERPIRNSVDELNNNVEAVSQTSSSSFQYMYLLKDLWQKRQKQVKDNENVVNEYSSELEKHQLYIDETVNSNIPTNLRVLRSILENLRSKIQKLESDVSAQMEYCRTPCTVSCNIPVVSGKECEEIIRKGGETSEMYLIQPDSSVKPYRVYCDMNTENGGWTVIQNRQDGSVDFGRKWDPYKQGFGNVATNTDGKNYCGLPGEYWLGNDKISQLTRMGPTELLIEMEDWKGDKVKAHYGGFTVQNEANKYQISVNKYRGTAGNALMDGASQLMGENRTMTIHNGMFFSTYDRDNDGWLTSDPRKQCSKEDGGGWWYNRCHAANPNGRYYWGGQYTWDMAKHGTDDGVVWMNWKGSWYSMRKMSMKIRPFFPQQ", "T1 sequence (P02679 27-453 partner)": "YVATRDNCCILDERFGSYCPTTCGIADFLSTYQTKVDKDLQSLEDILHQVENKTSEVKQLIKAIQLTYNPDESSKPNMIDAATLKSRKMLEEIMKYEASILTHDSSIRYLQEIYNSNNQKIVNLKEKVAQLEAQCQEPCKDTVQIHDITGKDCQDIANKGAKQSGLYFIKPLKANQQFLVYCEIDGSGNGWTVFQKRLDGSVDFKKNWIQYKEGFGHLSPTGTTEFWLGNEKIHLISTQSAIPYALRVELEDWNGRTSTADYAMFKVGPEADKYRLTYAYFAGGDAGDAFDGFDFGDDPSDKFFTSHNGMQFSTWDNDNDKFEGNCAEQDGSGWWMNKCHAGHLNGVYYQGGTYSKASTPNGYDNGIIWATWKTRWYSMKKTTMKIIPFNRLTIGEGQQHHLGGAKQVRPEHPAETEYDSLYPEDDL", "test": "Inhibition of 125I-fibrinogen binding to endothelial cells in suspension", "parameters": "species or system human", "conditions": "for Extent of inhibition of fibrinogen binding to endothelial cells: high concentrations of peptide"}, "ADP-stimulated platelets": {"biological_target": "ADP-stimulated platelets (Homo sapiens, UniProt P05106+P08514)", "sequence (P08514 32-1039)": "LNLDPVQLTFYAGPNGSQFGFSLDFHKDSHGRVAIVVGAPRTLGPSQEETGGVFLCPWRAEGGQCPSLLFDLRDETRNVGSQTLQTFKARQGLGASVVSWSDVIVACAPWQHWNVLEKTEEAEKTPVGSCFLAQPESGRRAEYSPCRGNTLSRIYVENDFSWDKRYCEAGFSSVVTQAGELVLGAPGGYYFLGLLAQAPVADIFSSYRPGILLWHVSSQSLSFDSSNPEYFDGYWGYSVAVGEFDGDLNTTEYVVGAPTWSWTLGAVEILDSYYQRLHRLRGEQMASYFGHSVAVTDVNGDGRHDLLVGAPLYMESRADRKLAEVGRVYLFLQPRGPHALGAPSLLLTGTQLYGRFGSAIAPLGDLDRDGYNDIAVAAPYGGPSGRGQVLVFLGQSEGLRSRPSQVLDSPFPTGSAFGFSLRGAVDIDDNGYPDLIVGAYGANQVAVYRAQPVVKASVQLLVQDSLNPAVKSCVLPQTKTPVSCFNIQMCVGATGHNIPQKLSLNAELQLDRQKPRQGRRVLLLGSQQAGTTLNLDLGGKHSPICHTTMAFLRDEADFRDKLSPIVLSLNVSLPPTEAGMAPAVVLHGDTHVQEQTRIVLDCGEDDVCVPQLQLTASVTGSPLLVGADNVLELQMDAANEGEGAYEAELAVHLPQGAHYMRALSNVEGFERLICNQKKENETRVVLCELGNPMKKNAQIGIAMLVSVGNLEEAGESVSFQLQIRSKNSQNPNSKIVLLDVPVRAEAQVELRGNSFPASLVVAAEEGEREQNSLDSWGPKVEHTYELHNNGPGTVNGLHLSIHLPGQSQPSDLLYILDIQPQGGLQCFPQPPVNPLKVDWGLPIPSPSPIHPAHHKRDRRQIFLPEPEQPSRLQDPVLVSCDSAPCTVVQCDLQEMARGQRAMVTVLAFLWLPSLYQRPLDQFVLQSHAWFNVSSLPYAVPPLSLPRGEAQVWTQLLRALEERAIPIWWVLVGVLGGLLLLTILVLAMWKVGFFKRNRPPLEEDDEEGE", "sequence (P05106 27-788)": "as the sequence (P05106 27-788) above", "sequence (P02671 36-866 partner)": "as the sequence (P02671 36-866 partner) above", "sequence (P02675 45-491 partner)": "as the sequence (P02675 45-491 partner) above", "sequence (P02679 27-453 partner)": "as the sequence (P02679 27-453 partner) above", "test": "Inhibition of 125I-fibrinogen binding to ADP-stimulated platelets", "conditions": "for Extent of inhibition of fibrinogen binding to platelets: high concentrations of peptide; for IC50: read-out: IC50 Platelets (Table III), mean of three separate experiments"}, "washed platelets": {"test_system": "washed platelets", "test": "Fibrinogen-dependent aggregation of washed platelets", "format": "cell-based, human", "conditions": "2 mM peptide, 20 μM ADP, medium 199"}, "endothelial cells [2]": {"biological_target": "T1, endothelial cells", "test": "Endothelial cell spreading on fibrinogen", "format": "cell-based, human", "conditions": "2 mM peptide, medium 199, 2% BSA"}}, "note": "Residues, ends and D or L forms follow the SMILES beside them.", "data": [{"smiles": "CC(C)[C@H](NC(=O)[C@H](CC(=O)O)NC(=O)CNC(=O)[C@H](C)NC(=O)[C@H](CCC(N)=O)NC(=O)[C@H](CCCCN)NC(=O)[C@H](C)NC(=O)CNC(=O)CN)C(=O)O", "note": "[G9] (H-GGAKQAGDV-OH; N-terminus assumed)", "values": [{"measurement": "Extent of inhibition of fibrinogen binding to endothelial cells", "setting": "endothelial cells [1]", "result": "only partially inhibited"}, {"measurement": "Extent of inhibition of fibrinogen binding to platelets", "setting": "ADP-stimulated platelets", "result": "complete"}]}, {"smiles": "CC(C)C[C@H](NC(=O)[C@H](Cc1c[nH]cn1)NC(=O)[C@@H](N)Cc1c[nH]cn1)C(=O)NCC(=O)NCC(=O)N[C@@H](C)C(=O)N[C@@H](CCCCN)C(=O)N[C@@H](CCC(N)=O)C(=O)N[C@@H](C)C(=O)NCC(=O)N[C@@H](CC(=O)O)C(=O)N[C@H](C(=O)O)C(C)C", "note": "[H12] (H-HHLGGAKQAGDV-OH; N-terminus assumed)", "values": [{"measurement": "Extent of inhibition of fibrinogen binding to endothelial cells", "setting": "endothelial cells [1]", "result": "only partially inhibited"}, {"measurement": "Extent of inhibition of fibrinogen binding to platelets", "setting": "ADP-stimulated platelets", "result": "complete"}]}, {"smiles": "CC(C)[C@H](NC(=O)[C@H](CC(=O)O)NC(=O)CNC(=O)[C@H](C)NC(=O)[C@H](CCC(N)=O)NC(=O)[C@@H](N)CCCNC(=N)N)C(=O)O", "note": "[RQAGDV] (H-RQAGDV-OH; N-terminus assumed)", "values": [{"measurement": "IC50", "setting": "ADP-stimulated platelets", "result": "> 1", "unit": "mM"}]}, {"smiles": "CC(C)[C@H](NC(=O)[C@H](CC(=O)O)NC(=O)CNC(=O)[C@H](C)NC(=O)[C@H](CCC(N)=O)NC(=O)[C@@H](N)Cc1c[nH]cn1)C(=O)O", "note": "[HQAGDV] (H-HQAGDV-OH; N-terminus assumed)", "values": [{"measurement": "Inhibition Platelet aggregation", "setting": "washed platelets", "result": 0, "unit": "%"}, {"measurement": "Potency on endothelial cells relative to platelets", "setting": "endothelial cells [1]; fibrinogen binding inhibition", "result": "at least fivefold"}, {"measurement": "IC50", "setting": "ADP-stimulated platelets", "result": "> 1", "unit": "mM"}, {"measurement": "Endothelial cell spreading", "setting": "endothelial cells [2]", "result": "+ +"}]}]}
